US5843936A, “Topical administration of azaspiranes to prevent or treat skin conditions associated with hyperproliferation of keratinocytes” (priority 1996, dated 1998)
Where a name gives a salt, the structure may show the parent alone.

How the values were obtained:
[1] = tested on: human skin microvascular endothelial cells; assay: Effect on morphology and growth of endothelial cell cultures; format: cell-based
Description: Skin endothelial cells in psoriasis are intimately involved in initiating the inflammatory response. Agents which affect both the binding of T lymphocytes and the hyperproliferation of endothelial cells would be expected to have a major effect in controlling the skin lesions.
In this study, human skin microvascular endothelial cells were isolated both from foreskins removed at circumcision and from skin obtained following a facial cosmetic correction. The endothelial cells were grown in a modified Iscove's medium, and while in the growth phase, the effect of varying concentrations of spirogermanium was studied on both the morphology and the growth of the endothelial cell cultures. Final concentrations of spirogermanium in the growth medium were 1,000, 500, 100, 50, 10, 1.0 and 0.125 μg/ml.

[2] = tested on: Human foreskin keratinocytes; assay: Mitotic activity of epidermal keratinocytes: inhibition of 3H-TdR incorporation into DNA; format: cell-based
Description: The mitotic activity of epidermal keratinocytes is one of the most obvious histological features of the psoriatic lesion. Many cytotoxic drugs used to treat the disease are believed to function by direct inhibition of keratinocyte replication.
Human foreskin keratinocytes were cultured in KGM. When the dishes were approximately 50% covered by cells, SG was added to give final concentrations of 5×10^-5 to 5×10^-9 M. After 3 days, the cells were pulsed with ^3 H-TdR for 4 hours, and incorporation into DNA assayed by conventional means. The inhibition of incorporation in 2 experiments was as follows: […]

[3] = In vivo evaluation of efficacy in treating psoriasis; details: moderate to severe psoriasis; documented (cited) procedures
Description: Compounds encompassed by structural formula (I) are evaluated in vivo for their efficacy in treating psoriasis. The methods of the following references are used in the evaluation: Berardesca et al., "Non-invasive Evaluation of Topical Calcipotriol versus Clobetasol in the Treatment of Psoriasis," Acta Derm Venereol (Stokh) 74:302-304 (1994); Elias et al., "A Controlled Trial of Topical Propylthiouracil in the Treatment of Patients with Psoriasis," J. Amer. Acad. Dermatol. 31(3):455-458; and Highton et al., "Calcipotriene Ointment 0.005% for Psoriasis: A Safety and Efficacy Study," J. Amer. Acad. Dermatol. 32(1):67-72 (1995).

[4] = hydrochloride salt, cited from earlier work

| SMILES | cell death ([1]; 0.125 μg/ml, after 1 week) | endothelial cell morphology ([1]; 10 μg/ml) | endothelial cell morphology ([1]; highest concentrations) | inhibition of DNA synthesis in keratinocytes (in words) [2] | efficacy in treating psoriasis [3] | solubility in 95% ethanol ([4]; 95% ethanol) | solubility in water ([4]; water) |
| --- | --- | --- | --- | --- | --- | --- | --- |
| C[CH2][Ge]1([CH2]C)[CH2]CC2(CCN(CCCN(C)C)C2)C[CH2]1 [SG] | cell death was observed after 1 week | vacuolization was observed before desquamation and ultimate cell death | immediately rounded up and detached from the dish surface | very potent inhibitor of DNA synthesis in keratinocytes | effective for treating moderate to severe psoriasis | – | – |
| C[CH2][Ge]1([CH2]C)[CH2]CC2(CCN(CCCN(C)C)C2)C[CH2]1 [spirogermanium HCl] | – | – | – | – | – | freely soluble | freely soluble |
